The values that follow come from article PMC6982718, “Comparative Study on Pharmacokinetics of Four Active Compounds in Rat Plasma after Oral Administration of Raw and Wine Processed Chuanxiong Rhizoma” (Molecules, 2019).

Data set [1] in a line: Pharmacokinetic study in rat plasma after oral administration of RCR and WCR oral liquid medicine. It counts as in vivo, Sprague-Dawley rats. The settings on record: n = 6, mean ± SD; for AUC(0-inf) / AUC(0-t) / Cmax / MRT / Tmax / half-life: male, Sprague-Dawley, rat, plasma, po, 24.01 g/kg. Here is the method:
RCR (300 g) and WCR (300 g) were weighed and soaked in water (6:1, v/w) for 20 min respectively, then refluxed for 30 min and extracted twice. Finally, the extracts of RCR and WCR were filtered, combined, and concentrated to 1.20 g/mL respectively. The concentrated extracts were stored in a refrigerator at 4 °C before use.
Male adult Sprague-Dawley rats (220–250 g) were obtained from the Laboratory Animal Center of Shanxi Medical University (Shanxi, China). The rats were fed in an air-conditioned animal center with a natural light-dark cycle for a week, the temperature was maintained at 22–26 °C and the relative humidity was maintained at 60 ± 10%. All procedures involving the animal were in accordance with the Regulations of Experimental Animal Administration issued by the State Committee of Science and Technology of People’s Republic of China. It is worth noting that all rats were fasted with free access to water for 12 h prior to the experiment.
The collected plasma samples (100 µL) spiked with IS (10 µL) and methanol (10 µL) were vortex-mixed for 5 min. Subsequently, methanol of 300 µL was added for protein precipitation. The mixtures were vortexed for 5 min and then centrifuged at 13,000 rpm for 20 min. Finally, the supernatant was transferred to another clean centrifuge tube and centrifuged again in the same manner. The supernatant of 5 µL was injected into the UHPLC-Q-Exactive-Orbitrap/MS system for analysis.
Twelve rats were randomly divided into two groups (n = 6 per group), an orally administered liquid medicine of RCR and WCR respectively at the same dose of 24.01 g/kg. The blood samples (0.3 mL) from the suborbital vein of each rat were collected in a 1.5 mL heparinized centrifuge tube before dosing and at 0.033, 0.083, 0.16, 0.25, 0.5, 1, 2, 4, 8, 11, 24, 48 h after administration. The blood samples were immediately centrifuged at 13,000 rpm for 10 min and the plasma separated out were transferred to clean centrifuge tubes and stored at −20 °C until analysis.
The pharmacokinetic parameters of the analytes were evaluated using Phoenix WinNonlin software (version 6.0, Pharsight Corporation, CA, USA). The mean plasma concentration-time curves were presented using Graphpad Prism (version 6.0, Graghpad Software, San Diego, CA, USA).

The format of data set [2] is in vitro ADME, rat. To be noted: low QC (7.08/5.22/6.55/6.68 ng/mL), n = 6. Here is the method: The quality control (QC) samples were prepared by the same procedure described above. Furthermore, low, medium, high concentrations of QC samples of each component were 7.08, 141.50, 1132 ng/mL for butylidenephthalide; 5.22, 104.40, 835.20 ng/mL for ligustilide; 6.55, 131, 1048 ng/mL for senkyunolide A and 6.68, 667.50, 10,680 ng/mL for ferulic acid, respectively.
The stability study of biological samples containing short-term, long-term, freeze-thaw and post-preparation stability could evaluate the influence of sample handling environment and sample storage environment on active component content. Six replicates of QC samples at three concentration levels were analyzed for all stability studies. Short-term stability was evaluated by keeping all QC samples at room temperature for 4 h before processing. Long-term stability was evaluated after all QC samples were stored at −20 °C for 60 days. Freeze-thaw stability of QC samples of each concentration was evaluated after three freeze (−20 °C)-thaw (room temperature) cycles. Post-preparation stability was to observe the stability of the extracted QC samples after waiting for 24 h in the autosampler at 4 °C. The concentration of each QC sample was calculated by the standard curve prepared freshly on the same day. The samples were considered stable when RSD of QC samples at three concentration levels was within ±15%.

A word on the AUC(0-inf): it is the area under the concentration-time curve extrapolated to infinity. Read a low AUC(0-inf) as less exposure. By AUC(0-t) is commonly meant the area under the concentration-time curve up to a stated or last time point. High values mean high exposure, low ones low exposure. The term Cmax denotes the peak of the concentration-time curve. In general, MRT refers to the average time that molecules of a dose stay in the body. What is called Tmax is the time from dosing to the highest level. One may read the half-life as the time in which the quantity being followed falls by half. Read a high half-life as slow loss. With `CCC/C=C1\OC(=O)c2ccccc21` [Butylidenephthalide, butylidenephthalide], in data set [1] (oral RCR 24.01 g/kg), the AUC(0-inf) was found to be 782 ± 252 ng·h/mL, the AUC(0-t) was found to be 743 ± 279 ng·h/mL, the peak level (Cmax) was 288 ± 370 ng/mL and the mean residence time (MRT) worked out at 14.1 ± 6.54 h. In data set [1] (oral RCR 24.01 g/kg), the time of peak concentration (Tmax) came to 0.25 ± 0.14 h, the half-life is 11.4 ± 5.88 h, the Cl is 36.61 ± 16.33 mL/h and the Vd was 633.78 ± 424.90 mL. In data set [1] (oral WCR 24.01 g/kg), this compound displayed an AUC(0-inf) of 402 ± 77.1 ng·h/mL, an AUC(0-t) of 384 ± 90.9 ng·h/mL, a maximum concentration (Cmax) of 52.1 ± 16.6 ng/mL and an MRT of 13.9 ± 3.63 h. Also, in data set [1] (oral WCR 24.01 g/kg), the Tmax was 0.27 ± 0.14 h, the half-life is 11 ± 3.75 h, the Cl came out at 234.35 ± 44.10 mL/h and the Vd came out at 3802.37 ± 1676.69 mL. For the same compound, the “Post-Preparative Stability RE” value in data set [2] (extracted rat plasma, 24 h in autosampler at 4 °C) turned out to be 6.90%. Besides, the “Bench-Top Stability RE” value in data set [2] (rat plasma, room temperature 4 h) worked out at 1.88%. Moreover, in data set [2] (rat plasma, three freeze (−20 °C)-thaw cycles), the “Freeze-Thaw Stability RE” value is on record as −10.99%. In addition, the “Long-Term Stability RE” value in data set [2] (rat plasma, −20 °C for 60 days) came to 4.03%.
In data set [1] (oral RCR 24.01 g/kg), `CCCCC1OC(=O)C2=C1CCC=C2` (stereo not shown) [Senkyunolide A, senkyunolide A] gave an AUC(0-inf) of 1840 ± 501 ng·h/mL, an AUC(0-t) of 1640 ± 438 ng·h/mL, a peak concentration (Cmax) of 653 ± 581 ng/mL and an MRT of 18.8 ± 4.24 h. Besides, in data set [1] (oral RCR 24.01 g/kg), the time to peak (Tmax) was 0.11 ± 0.09 h, the half-life is 13.4 ± 3.56 h, the Cl was found to be 392.87 ± 142.41 mL/h and the Vd stood at 7378.16 ± 2565.01 mL. In data set [1] (oral WCR 24.01 g/kg), this compound registered an AUC(0-inf) of 861 ± 267 ng·h/mL, an area under the curve AUC(0-t) of 804 ± 279 ng·h/mL, a Cmax of 151 ± 84.3 ng/mL and an MRT of 9.86 ± 1.53 h. In data set [1] (oral WCR 24.01 g/kg), the Tmax is 0.18 ± 0.07 h, the half-life was 6.32 ± 1.72 h and the Vd was 8275.68 ± 5216.70 mL.
In data set [1] (oral RCR 24.01 g/kg), `CCC/C=C1\OC(=O)C2=C1CCC=C2` [Ligustilide, ligustilide] came in with an AUC(0-inf) of 4110 ± 285 ng·h/mL, an exposure AUC(0-t) of 4080 ± 201 ng·h/mL, a peak concentration (Cmax) of 289 ± 8.1 ng/mL and an MRT of 13.5 ± 1.74 h. Further, in data set [1] (oral RCR 24.01 g/kg), the time to peak (Tmax) is 0.22 ± 0.05 h, the half-life was 8.5 ± 1.41 h, the Cl was found to be 128.76 ± 19.21 mL/h and the Vd is 1579.29 ± 363.96 mL. In data set [1] (oral WCR 24.01 g/kg), the AUC(0-inf) is 4040 ± 1480 ng·h/mL, the exposure AUC(0-t) was 3310 ± 579 ng·h/mL, the highest concentration (Cmax) came to 192 ± 8.48 ng/mL and the mean residence time (MRT) was found to be 21.9 ± 11.2 h. In data set [1] (oral WCR 24.01 g/kg), the time of peak concentration (Tmax) was determined as 0.3 ± 0.18 h, the half-life was 14.6 ± 7.56 h, the Cl is reported as 568.93 ± 184.86 mL/h and the Vd is 10,580.62 ± 2206.75 mL.
With `COc1cc(/C=C/C(=O)O)ccc1O` [Ferulic Acid, ferulic acid], in data set [1] (oral RCR 24.01 g/kg), the total exposure AUC(0-inf) stood at 13400 ng·h/mL, the AUC(0-t) was 13100 ng·h/mL, the peak level (Cmax) was 47700 ng/mL and the mean residence time (MRT) was 3.21 ± 1.66 h. Also, in data set [1] (oral RCR 24.01 g/kg), the time to peak (Tmax) is 0.12 ± 0.09 h, the Cl came to 24.08 ± 14.39 mL/h, the Vd is 283.95 ± 234.10 mL and the t1/2 is recorded as 8.57 ± 4.42 h. In data set [1] (oral WCR 24.01 g/kg), this compound displayed a total exposure AUC(0-inf) of 4620 ± 1290 ng·h/mL, an AUC(0-t) of 4460 ± 1240 ng·h/mL, a Cmax of 9530 ± 6500 ng/mL and an MRT of 4.05 ± 1.07 h. Also, in data set [1] (oral WCR 24.01 g/kg), the Tmax was 0.06 ± 0.03 h, the Cl is reported as 178.84 ± 54.46 mL/h, the Vd amounted to 1519.30 ± 1321.97 mL and the t1/2 is recorded as 5.33 ± 2.97 h.
